Measurements taken from US20240391862A1, “(1,4,5-TRISUBSTITUTED-1H-PYRAZOL-3-YL)OXY-2-ALKOXY ALKYL ACIDS AND THEIR DERIVATIVES, THEIR SALTS AND THEIR USE AS HERBICIDAL AGENTS” (Bayer AKtiengesellschaft, priority 2021, published 2024).

Tests used:
[1] = test system: ZEAMX; test: Post-emergence herbicidal effect and crop plant compatibility, greenhouse pot test; assay type: in vivo, Zea mays; settings: one-leaf stage, rated visually after about 3 weeks vs untreated controls; for plant injury at 20 g/ha: Zea mays, 504 h, read-out: Post-emergence effect at 20 g/ha against ZEAMX in %
Procedure, shortened: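 Sandy loam pots, greenhouse. One-leaf stage (2–3 wk after sowing) foliar spray; WP/EC in water + 0.5% additive, 600 l/ha; 20–320 g/ha. Visual score ~3 wk, 0–100% vs untreated.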

[2] = test system: ABUTH; test: Post-emergence herbicidal effect, greenhouse pot test; assay type: in vivo, Abutilon theophrasti; settings: visual rating about 3 weeks after treatment; for pest or weed control at 80 g/ha / pest or weed control at 320 g/ha: Abutilon theophrasti, 504 h, read-out: Post-emergence effect against ABUTH
Procedure, shortened: (§1)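 Visual % activity scored roughly 3 weeks post-spray against untreated plants, where 100% means death and 0% equals control. Plants were treated at the one-leaf stage, 2 to 3 weeks after sowing in sandy loam, at 20 to 320 g/ha.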

[3] = test system: ALOMY; test: as above; assay type: in vivo, Alopecurus myosuroides; settings: visual rating about 3 weeks after treatment
Procedure, shortened: as §1

[4] = test system: AMARE; test: as above; assay type: in vivo, Amaranthus retroflexus; settings: 320 g/ha, visual rating about 3 weeks after treatment; for pest or weed control at 320 g/ha: Amaranthus retroflexus, 504 h, read-out: Post-emergence effect against AMARE
Procedure, shortened: as §1

[5] = test system: AVEFA; test: as above; assay type: in vivo, Avena fatua; settings: visual rating about 3 weeks after treatment; for pest or weed control at 80 g/ha / pest or weed control at 320 g/ha: Avena fatua, 504 h, read-out: Post-emergence effect against AVEFA
Procedure, shortened: as §1

[6] = test system: DIGSA; test: as above; assay type: in vivo, Digitaria sanguinalis; settings: visual rating about 3 weeks after treatment
Procedure, shortened: as §1

[7] = test system: ECHCG; test: as above; assay type: in vivo, Echinochloa crus-galli; settings: for pest or weed control at 80 g/ha / pest or weed control at 320 g/ha: read-out: Post-emergence effect against ECHCG in %
Procedure, shortened: as §1

[8] = test system: LOLRI; test: as above; assay type: in vivo, Lolium rigidum
Procedure, shortened: as §1

[9] = test system: MATIN; test: as above; assay type: in vivo, Tripleurospermum inodorum; settings: for pest or weed control at 80 g/ha / pest or weed control at 320 g/ha: Tripleurospermum inodorum, 504 h, read-out: Post-emergence effect against MATIN in %
Procedure, shortened: as §1

[10] = test system: PHBPU; test: as above; assay type: in vivo, Ipomoea purpurea; settings: for pest or weed control at 80 g/ha / pest or weed control at 320 g/ha: Ipomoea purpurea, 504 h, read-out: Post-emergence effect against PHBPU in %
Procedure, shortened: as §1

[11] = test system: POLCO; test: as above; assay type: in vivo, Fallopia convolvulus
Procedure, shortened: as §1

[12] = test system: SETVI; test: as above; assay type: in vivo, Setaria viridis; settings: for pest or weed control at 80 g/ha / pest or weed control at 320 g/ha: Setaria viridis, 504 h, read-out: Post-emergence effect against SETVI in %
Procedure, shortened: as §1

[13] = test system: VERPE; test: as above; assay type: in vivo, Veronica persica; settings: for pest or weed control at 80 g/ha / pest or weed control at 320 g/ha: Veronica persica, 504 h, read-out: Post-emergence effect against VERPE in %
Procedure, shortened: as §1

[14] = test system: VIOTR; test: as above; assay type: in vivo, Viola tricolor
Procedure, shortened: as §1

[15] = test system: KCHSC; test: as above; assay type: in vivo; settings: for pest or weed control at 80 g/ha / pest or weed control at 320 g/ha: 504 h, read-out: Post-emergence effect against KCHSC in %
Procedure, shortened: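 Greenhouse plants in sandy loam, sprayed post-emergence at the one-leaf stage (2–3 weeks after sowing) with WP or EC formulations in water plus 0.5% additive at 600 l/ha. Rates 20 to 320 g/ha. Activity rated visually after about 3 weeks against untreated controls (0% like control, 100% dead).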

[16] = Alopecurus myosuroides, 504 h, 320 g/ha, read-out: Post-emergence effect against ALOMY
[17] = Digitaria sanguinalis, 504 h, 320 g/ha, read-out: Post-emergence effect against DIGSA
[18] = Echinochloa crus-galli, 504 h, 80 g/ha
[19] = Echinochloa crus-galli, 504 h, 320 g/ha
[20] = Lolium rigidum, 504 h, 320 g/ha, read-out: Post-emergence effect against LOLRI in %
[21] = Fallopia convolvulus, 504 h, read-out: Post-emergence effect against POLCO in %
[22] = Fallopia convolvulus, 504 h, 320 g/ha, read-out: Post-emergence effect against POLCO in %
[23] = Viola tricolor, 504 h, 80 g/ha, read-out: Post-emergence effect against VIOTR in %
[24] = Viola tricolor, 504 h, 320 g/ha, read-out: Post-emergence effect against VIOTR in %

`CCOC(=O)C(OC)Oc1nn(-c2ncccc2F)c(-c2ccc(F)nc2)c1Cl` (centres unmarked) [Example I-48] showed a plant injury at 20 g/ha ([1]; 20 g/ha) of 0%, a pest or weed control at 80 g/ha ([2]; 80 g/ha) of 80% and a pest or weed control at 320 g/ha ([2]; 320 g/ha) of 90%. It also gave a pest or weed control at 320 g/ha [3, 16] of 90%, a pest or weed control at 320 g/ha [4] of 80% and a pest or weed control at 80 g/ha [5] of 90%. It also gave a pest or weed control at 320 g/ha ([5]; 320 g/ha) of 90%, a pest or weed control at 80 g/ha ([6]; Digitaria sanguinalis, 504 h, 80 g/ha, read-out: Post-emergence effect against DIGSA) of 80% and a pest or weed control at 320 g/ha [6, 17] of 90%. The pest or weed control at 80 g/ha [7, 18] was 90%, the pest or weed control at 320 g/ha [7, 19] was 90% and the pest or weed control at 80 g/ha ([8]; Lolium rigidum, 504 h, 80 g/ha, read-out: Post-emergence effect against LOLRI in %) was 90%. For the same molecule, the pest or weed control at 320 g/ha [8, 20] was 90%, the pest or weed control at 80 g/ha ([9]; 80 g/ha) was 80% and the pest or weed control at 320 g/ha ([9]; 320 g/ha) was 90%. It also gave a pest or weed control at 80 g/ha ([10]; 80 g/ha) of 90%, a pest or weed control at 320 g/ha ([10]; 320 g/ha) of 90% and a pest or weed control at 20 g/ha ([11]; Fallopia convolvulus, 504 h, 20 g/ha, read-out: Post-emergence effect against POLCO in %) of 80%. It also gave a pest or weed control at 80 g/ha [11, 21] of 80%, a pest or weed control at 320 g/ha [11, 22] of 80% and a pest or weed control at 80 g/ha ([12]; 80 g/ha) of 90%. The pest or weed control at 320 g/ha ([12]; 320 g/ha) was 90%, the pest or weed control at 80 g/ha ([13]; 80 g/ha) was 80% and the pest or weed control at 320 g/ha ([13]; 320 g/ha) was 90%. It also gave a pest or weed control at 20 g/ha ([14]; Viola tricolor, 504 h, 20 g/ha, read-out: Post-emergence effect against VIOTR in %) of 80%, a pest or weed control at 80 g/ha [14, 23] of 90% and a pest or weed control at 320 g/ha [14, 24] of 90%. It also gave a pest or weed control at 80 g/ha [15] of 80% and a pest or weed control at 320 g/ha ([15]; 320 g/ha) of 90%.

For `COC(Oc1nn(-c2ncccc2F)c(-c2cncc(F)c2)c1C1CC1)C(=O)O` (centres unmarked) [Example I-68], the plant injury at 20 g/ha ([1]; 20 g/ha) was 0%, the pest or weed control at 80 g/ha ([2]; 80 g/ha) was 80% and the pest or weed control at 320 g/ha ([2]; 320 g/ha) was 90%. It also gave a pest or weed control at 80 g/ha ([3]; Alopecurus myosuroides, 504 h, 80 g/ha, read-out: Post-emergence effect against ALOMY) of 90%, a pest or weed control at 320 g/ha [3, 16] of 90% and a pest or weed control at 320 g/ha [4] of 80%. For the same molecule, the pest or weed control at 80 g/ha [5] was 90%, the pest or weed control at 320 g/ha ([5]; 320 g/ha) was 90% and the pest or weed control at 320 g/ha [6, 17] was 90%. For the same molecule, the pest or weed control at 20 g/ha ([7]; Echinochloa crus-galli, 504 h, 20 g/ha, visual rating about 3 weeks after treatment, read-out: Post-emergence effect against ECHCG) was 80%, the pest or weed control at 80 g/ha [7, 18] was 90% and the pest or weed control at 320 g/ha [7, 19] was 90%. For the same molecule, the pest or weed control at 320 g/ha [8, 20] was 90%, the pest or weed control at 80 g/ha ([9]; 80 g/ha) was 80% and the pest or weed control at 320 g/ha ([9]; 320 g/ha) was 90%. It also gave a pest or weed control at 80 g/ha ([10]; 80 g/ha) of 90%, a pest or weed control at 320 g/ha ([10]; 320 g/ha) of 90% and a pest or weed control at 80 g/ha [11, 21] of 80%. For the same molecule, the pest or weed control at 320 g/ha [11, 22] was 80%, the pest or weed control at 80 g/ha ([12]; 80 g/ha) was 90% and the pest or weed control at 320 g/ha ([12]; 320 g/ha) was 90%. It also gave a pest or weed control at 80 g/ha ([13]; 80 g/ha) of 90%, a pest or weed control at 320 g/ha ([13]; 320 g/ha) of 90% and a pest or weed control at 80 g/ha [14, 23] of 90%. For the same molecule, the pest or weed control at 320 g/ha [14, 24] was 90%, the “Post-emergence effect against KCHSC in %” value ([15]; 20 g/ha) was 90% and the pest or weed control at 80 g/ha [15] was 90%. The pest or weed control at 320 g/ha ([15]; 320 g/ha) was 90%.

`COC(=O)CCOC(=O)C(OC)Oc1nn(-c2ccccc2F)c(-c2ccc(F)nc2)c1C1CC1` (single isomer, unassigned) [Example I-75] was tested, and the “Post-emergence effect at 20 g/ha against ZEAMX in %” value ([1]; 20 g/ha) was 0%, the “Post-emergence effect at 80 g/ha against ZEAMX in %” value ([1]; 80 g/ha) was 0% and the “Post-emergence effect against ABUTH” value ([2]; 20 g/ha) was 80%. For the same molecule, the “Post-emergence effect against ABUTH” value ([2]; 80 g/ha) was 80%, the “Post-emergence effect against ABUTH” value ([2]; 320 g/ha) was 90% and the “Post-emergence effect against ALOMY” value ([3]; 320 g/ha) was 80%. For the same molecule, the “Post-emergence effect against AMARE” value [4] was 90%, the “Post-emergence effect against AVEFA” value ([5]; 320 g/ha) was 90% and the “Post-emergence effect against DIGSA” value ([6]; 80 g/ha) was 80%. The “Post-emergence effect against DIGSA” value ([6]; 320 g/ha) was 80%, the “Post-emergence effect against ECHCG in %” value ([7]; 80 g/ha) was 90% and the “Post-emergence effect against ECHCG in %” value ([7]; 320 g/ha) was 90%. For the same molecule, the “Post-emergence effect against LOLRI in %” value ([8]; 80 g/ha) was 80%, the “Post-emergence effect against LOLRI in %” value ([8]; 320 g/ha) was 90% and the “Post-emergence effect against MATIN in %” value ([9]; 80 g/ha) was 80%. The “Post-emergence effect against MATIN in %” value ([9]; 320 g/ha) was 80%, the “Post-emergence effect against PHBPU in %” value ([10]; 80 g/ha) was 80% and the “Post-emergence effect against PHBPU in %” value ([10]; 320 g/ha) was 90%. For the same molecule, the “Post-emergence effect against POLCO in %” value ([11]; 320 g/ha) was 80%, the “Post-emergence effect against SETVI in %” value ([12]; 80 g/ha) was 80% and the “Post-emergence effect against SETVI in %” value ([12]; 320 g/ha) was 90%. For the same molecule, the “Post-emergence effect against VERPE in %” value ([13]; 80 g/ha) was 80%, the “Post-emergence effect against VERPE in %” value ([13]; 320 g/ha) was 90% and the “Post-emergence effect against VIOTR in %” value ([14]; 80 g/ha) was 80%. For the same molecule, the “Post-emergence effect against VIOTR in %” value ([14]; 320 g/ha) was 90% and the “Post-emergence effect against KCHSC in %” value ([15]; 320 g/ha) was 90%.
